Experimental findings from patent publication US8618122B2, “Compound having acidic group which may be protected, and use thereof” (Ono Pharmaceutical Co., Ltd., priority 2006, dated 2013) are described below.

The target of one data set is T1, CXCR4 (Homo sapiens, UniProt P61073).
T1 construct: a human T cell strain in which CXCR4 is known to be expressed; endogenous in cells; host or cells: CEM cells (human T cell strain)
Briefly: Inhibition of binding human SDF-1 (125I-SDF-1) to CEM cells. As to conditions: 125I-SDF-1 binding to human T cell strain CEM cells, 4° C., 60 minutes. The method, then:
Specifically, as a system of screening a compound that inhibits the binding between SDF-1 and CXCR4, for example a system of measuring the binding between iodine-labeled SDF-1 and a human T cell strain in which CXCR4 is known to be expressed is operable.
To human T cell strain CEM cells in a binding buffer (containing HEPES and BSA), the test compound and ^125I-SDF-1 (NEN) were added and the mixture was incubated at 4° C. for 60 minutes. The reacted CEM cells were rapidly filtrated with a GF/B membrane filter plate (Packard) to adsorb. The plate was washed with phosphate buffered saline (hereinafter abbreviated to PBS) three times and then dried. Microscint+20 (Packard) was added thereto. An amount of the radioactivity bound to the CEM cells was measured using Top Count (Packard) and inhibition (%) of the test compound was calculated according to the following equation: Inhibition={(Et−Ea)/(Et−Ec)}×100
Et: Amount of radioactivity when the test compound is not added,
Ec: Amount of radioactivity when non-radioactive SDF-1 (Pepro Tech) is added in an amount of 1,000 times as much as ^125I-SDF-1 as a test compound,
Ea: Amount of radioactivity when the test compound is added.

Data set [1] can be described thus: Artificial lipid membrane binding using Biacore S51 system (in vitro phospholipidosis risk). The settings on record: for Determination: Biacore lipid membrane binding, positive if corrected value 150 or more; for Corrected value of binding response (RU): compound 50 μM in PBS/5% DMSO (pH 7.4), 37° C., DOPA liposome on Sensor Chip L1. The method, then:
10 mM of 1,2-dioleoyl-sn-glycero-3-phosphate monosodium salt (hereinafter abbreviated as DOPA) chloroform solution was evaporated to dryness by means of an aspirator, and 0.6 mL of PBS/5% dimethyl sulfoxide (hereinafter abbreviated as DMSO) was added. The solution was fully suspended by the vortex mixer, and the freezing and thawing were repeated for 5 times. Liposome was created by the liposome preparation instrument (manufactured by Avestin Inc.) and two syringes, and was diluted to 0.5 mM with PBS/5% DMSO just prior to immobilization.
38 μl of 1×PBS was added to 2 μl of a DMSO solution (10 mM), and the 360 μl of 1×PBS/5% DMSO was further added thereto and the 50 μM of final concentration in PBS/5% DMSO was prepared and measured.
All of the following analysis used Biacore® S51 system and the measurement conditions were set by Biacore S51 Control Soft.
The measurement temperature was set to be 37° C., and PBS/5% DMSO (pH 7.4) was used as a buffer. Series S Sensor Chip L1 was used for a sensor chip. DOPA was immobilized in one of the measuring spots on the sensor surface and the central spot was used as a reference.
Immobilization of liposome was conducted at a flow rate of 10 μL/min for about 3 minutes and then the compound was added at a flow rate of 30 μL/min and the interaction was measured. The measurement conditions are as follows: • Assay buffer: PBS/5% DMSO (pH 7.4) • Measurement temperature: 37° C. • Sensor chip: Series S Sensor Chip L1 • Flow rate: 10 μL/min at the time of the liposome immobilization; 30 μL/min at the time of the measurement of interaction with the compound Regeneration: 20 mM CHAPS (3-[(3-cholamidopropyl)dimethylammonio]-1-propanesulfonate), isopropanol/aqueous 50 mM sodium hydroxide solution=40/60 (volume ratio) mixture (60 seconds) (4) Data Processing
The data processing was conducted by means of method of Abdiche et al. (Analytical biochemistry, 328, 233-243 (2004)) by using Biacore S51 Evaluation Soft.
Regarding the value of binding response (RU) in which the value of reference was subtracted, it was divided by a sample molecular weight after minute error of the DMSO concentration included in the sample solution was corrected. In addition, the value obtained here was divided by an amount of capture at the time of the cycle because the value obtained here was proportional to the amount of capture of the liposome and the value was multiplied by a million to be considered as a corrected value (Corrected value=1,000,000×RU (test compound)/molecular quantity (test compound) RU (liposome)).
Propranolol, amiodarone, desipramine, imipramine and procaine were added as the controls, and it was recognized that the variation of the binding response was within about 10 to 15%.
The compound wherein a value of the binding response after the correction was 150 or more was determined as positive.

Data set [2] deals with CHL/IU (cell line derived from a Chinese hamster lung). Briefly: Phospholipidosis detecting system using fluorescent labeling phospholipid analog (NBD-PE). The data set is classed as cell-based. As to conditions: for Rate of increase of phopholipid accumulation (%): compound dose: 100 μM, CHL/IU cells, NBD-PE, about 24 hours; for Determination: positive if 25% or more of maximum increase rate of amiodarone. The method, then:
100 μL/well as required (1 dose 2 wells) of cell suspension of CHL/IU (cell line derived from a Chinese hamster lung) (7×10^4 cells/mL) prepared by MEM (minimum essential medium) culture medium was added to a 96-well plate (96-well clear-bottom plate), and cultured for about 24 hours. After culture, the supernatant of the 96-well plate was removed, and the 100 μL/well compounds of each concentration dissolved and suspended in an MEM including 25 μmol/L nitrobenzoxadiazole dipalmitoyl phosphatidylethanolamine (NBD-PE) (hereinafter abbreviated as a NPD-PE medium) were added and treated for about 24 hours. The treatment concentrations of each compound were set to be 6.25, 12.5, 25, 50 and 100 μmol/L. The positive control substance was set to be amiodarone hydrochloride, and the treatment concentrations were set to be 1.25, 2.5, 5, 10 and 20 μmol/L. In addition, 5-well untreated controls (only MEM) and 5-well NBD-PE controls (made by means of adding a 1/100 amount of DMSO to the NBD-PE culture medium) were set per compound, and cultured in the same manner. After finishing the culture, the cultures were washed twice with phosphate buffered saline (hereinafter abbreviated as PBS) (−) 100 μL/well, and the MEM (100 μL) was added to all of the treatment wells including two empty wells for WST-1 background controls and cultured for about a half hour. The fluorescence intensities of each well were measured by using a microplate reader (manufactured by Molecular Devices Inc., SPECTRA max M2; the excitation wavelength 485 nm/fluorescence wavelength 535 nm). Using the average values of each dose×2 wells, a phospholipid increase rate (%) to the NBD-PE control was calculated by using the following calculating formula: Rate of increase of pholipid accumulation (%)=100×{(test compound fluorescence intensity−non-treated control fluorescence intensity)/(NBD-PE control fluorescence intensity−non-treated control fluorescence intensity)} (3) Cytotoxicity Assay 96-well plate measured in the phospholipid accumulation measurement was measured by means of Plate Reader (manufactured by Molecular Devices Inc., SPECTRA max M2) with the main wavelength of 450 nm and the correct wavelength of 690 nm to calculate a Pre value. An amount of 5 μL/well of Premix WS T-1 was added to each of the 96-hole plates by which Pre measurement was conducted. After culture for 2 to 4 hours, the 96-well plate was measured as well as the Pre measurement to calculate an Aft value. Then, the background control value was subtracted from the each measured value. A value which was calculated by subtracting the Pre value from the Aft value was used, then the cell growth rate (%) was calculated by using the following calculating formula: Cell growth rate (%)=100×[(test substance OD)/(NBD-PE control OD)] (4) Determination A test dose that indicated value of 25% or more of the maximum phospholipid accumulation increase rate of amiodarone which was the positive control was determined as positive. In addition, the dose whose cell growth rate was equal to or less than 50% in the cytotoxicity assay was not used for determination of existence or nonexistence of a phospholipidosis inductive effect.

T1 sequence (P61073 whole entry): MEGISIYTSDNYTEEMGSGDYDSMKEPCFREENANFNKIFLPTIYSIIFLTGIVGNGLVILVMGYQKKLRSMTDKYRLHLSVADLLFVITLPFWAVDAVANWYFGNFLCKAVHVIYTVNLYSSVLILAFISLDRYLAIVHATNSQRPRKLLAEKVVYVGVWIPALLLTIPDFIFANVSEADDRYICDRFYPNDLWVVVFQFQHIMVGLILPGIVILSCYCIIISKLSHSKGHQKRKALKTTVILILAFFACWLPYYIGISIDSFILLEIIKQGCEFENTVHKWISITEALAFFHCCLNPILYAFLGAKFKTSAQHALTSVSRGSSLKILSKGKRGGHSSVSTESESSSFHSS

At CXCR4, `CCOC(=O)CCCn1ccnc1CN(Cc1ccc(CN2CCC3(CCN(C(CC)CC)CC3)C2)cc1)Cc1ncc[nH]1` [Example 37 (3), Ethyl 4-(2-{[(4-{[8-(1-ethylpropyl)-2,8-diazaspiro[4.5]dec-2-yl]methyl]benzyl)(1 H-imidazol-2-ylmethyl)amino]methyl}-1H-imidazol-1-yl)butanoate] yielded an IC50 of 11.8 nM.

For the molecule `O=C(O)Cn1ccnc1CN(Cc1ccc(CN2CCC3(CCN(C4CCCCC4)CC3)C2)cc1)Cc1ncc[nH]1` [Example 9, (2-{[{4-[(8-cyclohexyl-2,8-diazaspiro[4.5]dec-2-yl)methyl]benzyl}(1H-imidazol-2-ylmethyl)amino]methyl}-1H-imidazol-1-yl)acetic Acid], in data set [1], the Determination entry is “Negative (The compound wherein a value of the binding response after the correction was 150 or more was determined as positive)” and the “Corrected value of binding response (RU)” value is given as 59.0 RU. At CXCR4, this molecule registered an IC50 of 4.8 nM. Besides, in data set [2], the “Rate of increase of phopholipid accumulation (%)” value (from here on “Rate of increase … (%)”) came to 10% and the Determination entry is listed as “Negative (A test dose that indicated value of 25% or more of the maximum phospholipid accumulation increase rate of amiodarone which was the positive control was determined as positive)”.

For `CCC(CC)N1CCC2(CCN(Cc3ccc(CN(Cc4ncc[nH]4)Cc4nccn4CCCC(=O)O)cc3)C2)CC1` [Example 38 (3), 4-(2-{[(4-{[8-(1-ethylpropyl)-2,8-diazaspiro[4.5]dec-2-yl]methyl]benzyl)(1H-imidazol-2-ylmethyl)amino]methyl}-1H-imidazol-1-yl)butanoic Acid], in data set [1], the Determination entry is listed as “Negative (The compound wherein a value of the binding response after the correction was 150 or more was determined as positive)” and the “Corrected value of binding response (RU)” value came out at 98.9 RU. At CXCR4, the IC50 was 12 nM. Moreover, in data set [2], the “Rate of increase … (%)” value was 11% and the Determination entry is recorded as “Negative (A test dose that indicated value of 25% or more of the maximum phospholipid accumulation increase rate of amiodarone which was the positive control was determined as positive)”.

As to `CC(C)CN1CCC2(CC1)CCN(Cc1ccc(CN(Cc3ncc[nH]3)Cc3nccn3CCCC(=O)O)cc1)C2` [Example 38 (1), 4-(2-{[(1H-imidazol-2-ylmethyl){4-[(8-isobutyl-2,8-diazaspiro[4.5]dec-2-yl)methyl]benzyl}amino]methyl}-1H-imidazol-1-yl)butanoic Acid], in data set [1], the Determination entry was “Negative (The compound wherein a value of the binding response after the correction was 150 or more was determined as positive)” and the “Corrected value of binding response (RU)” value was 5.4 RU. Further, the half-inhibitory concentration (IC50) at CXCR4 amounted to 18.7 nM. Further, in data set [2], the “Rate of increase … (%)” value is 8% and the Determination entry is listed as “Negative (A test dose that indicated value of 25% or more of the maximum phospholipid accumulation increase rate of amiodarone which was the positive control was determined as positive)”.

The molecule `CCOC(=O)CCCn1ccnc1CN(Cc1ccc(CN2CCC3(CCN(CC(C)C)CC3)C2)cc1)Cc1ncc[nH]1` [Example 37 (1), Ethyl 4-(2-{[(1H-imidazol-2-ylmethyl){4-[(8-isobutyl-2,8-diazaspiro[4.5]dec-2-yl)methyl]benzyl}amino]methyl}-1 H-imidazol-1-yl)butanoate] registered an IC50 on CXCR4 of 13.7 nM.

Turning to `O=C(O)CCn1ccnc1CN(Cc1ccc(CN2CCC3(CCN(C4CCCCC4)CC3)C2)cc1)Cc1ncc[nH]1` [Example 9 (1), 3-(2-{[{4-[(8-cyclohexyl-2,8-diazaspiro[4.5]dec-2-yl)methyl]benzyl}(1H-imidazol-2-ylmethyl)amino]methyl}-1H-imidazol-1-yl)propionic Acid], in data set [1], the Determination entry was “Negative (The compound wherein a value of the binding response after the correction was 150 or more was determined as positive)” and the “Corrected value of binding response (RU)” value is 52.0 RU. In addition, the IC50 on CXCR4 was found to be 3.4 nM. Moreover, in data set [2], the “Rate of increase … (%)” value came out at 6% and the Determination entry was “Negative (A test dose that indicated value of 25% or more of the maximum phospholipid accumulation increase rate of amiodarone which was the positive control was determined as positive)”.

`CC(OC(=O)CCn1ccnc1CN(Cc1ccc(CN2CCC3(CCN(C4CCCCC4)CC3)C2)cc1)Cc1ncc[nH]1)OC(=O)OC1CCCCC1` (centres unmarked) [Example 36, 1-{[(cyclohexyloxy)carbonyl]oxy}ethyl 3-(2-{[{4-[(8-cyclohexyl-2,8-diazaspiro[4.5]dec-2-yl)methyl]benzyl}(1H-imidazol-2-ylmethyl)amino]methyl}-1H-imidazol-1-yl)propanoate]: the IC50 on CXCR4 was 20.4 nM.
